Reference: patent US5773236A, “Assay for glutathiane transferase using polyhaloaryl-substituted reporter molecules” (Molecule Probes, Inc., priority 1997, dated 1998)
“Also recorded” adds a separate entry of the source.

Columns and labels:
[1] = cited from earlier work
β-galactosidase = assay: Reactivity with thiol groups of proteins (Example 51); format: biochemical
Description: To test the specificity of the Compound 1 reaction with GSH versus thiol-containing proteins, β-galactosidase (a protein that has several free thiols) is dissolved at 5 mg/mL in deoxygenated 0.1M phosphate, 0.1M NaCl, pH 7.5, and reacted under anaerobic conditions with 5-(pentafluorobenzoylamino)fluorescein diacetate (Compound 4, Example 3) or Compound 1 dissolved at 10 mg/mL in DMSO at a molar ratio of the reagent to protein of 15. This assay is performed both in the presence and absence of 30 mM N-ethyl maleimide (NEM) as an effective thiol-blocking reagent. The reactions are incubated at room temperature for 1 hour, stopped by the addition of hydroxylamine, pH 9 to a final concentration of 0.15M, and incubated for 2 more hours to hydrolyze the acetate groups. […] Consequently, no reaction of either Compound 4 or Compound 1 with β-galactosidase is detected under the described conditions.

3T3 or BPAE cells [2] = assay: Intracellular products of tracers by gel electrophoresis (Example 67); format: cell-based; details: 5 μM, 1 hr, 37° C.
Description: (§1) Cultures of either 3T3 or BPAE cells are treated with 5 μM solutions of either Compound 4,5-(pentachlorobenzoylamino)fluorescein diacetate, 5-pentafluorobenzenesulfonylamino)fluorescein diacetate, or 5-chloromethylfluorescein diacetate (CMFDA, Molecular Probes, Inc.) for 1 hr at 37° C. The cells are spun, resuspended in distilled water and lysed by repeated freezing and thawing. 20 μL of the cell lysate supernatant is diluted with 30 μL of SDS-PAGE sample buffer, containing β-mercaptoethanol. The cell pellets are dispersed in 50 μL of water. 20 μL of each sample is added to 30 μL of the same sample buffer. The samples are heated at 95° C. for 5 min. and loaded on 4-20% polyacrylamide gradient minigels. At the completion of the run the gels are observed with UV excitation.

NIH-3T3 cells = assay: Hydrolysis of esterase substrates and product retention in live cells, flow cytometry (Example 65); format: cell-based
Description: NIH-3T3 cells obtained from American Type Culture Collection Co., Rockville, Md. are used. They are grown in a humidified atmosphere of 5% CO2 in D-MEM supplemented with 10% bovine calf serum (BCS), 50 μg/mL gentamycin, 300 μg/mL L-glutamine and 10 mM HEPES, pH 7.4. Stock solutions of Compound 4 (Example 3), 10 mM in DMSO, and Compound 48 (Example 50), 5 mM in DMSO, are prepared. NIH-3T3 cells are trypsinized, washed with phosphate-buffered saline (PBS), pH 7.2 and resuspended in D-MEM with 10% BCS. To 1 mL of the cell suspension is added the dye stock solution to obtain a final dye concentration of 0.1 mM. Incubation is carried out at 37° C. for 30 minutes followed by incubation on ice for 30 minutes. Cells are centrifuged to form a pellet, the supernatant is discarded and the cells are washed twice with PBS, pH 7.2 and suspended in the same buffer. Cells are analyzed by flow cytometry using the Becton-Dickinson FACS Vantage flow cytometer. After analysis on the flow cytometer, cells are placed at 37° C. and analyzed by flow cytometry at frequent intervals over a period of 75 minutes. Cells stained with either of the dyes are at least 20-fold brighter than the autofluorescent control cells. Approximately 45% of Compound 4 and 35% of Compound 48 are still retained by the cells after 75 minutes of incubation at 37° C.

3T3 or BPAE cells [3] = assay: Intracellular products of tracers by TLC and HPLC (Example 67); format: cell-based; details: 5 μM, 1 hr, 37° C.
Description: Reaction mixtures with and without GST using Compound 1 as the substrate, are prepared as described in Example 48. The solutions are mixed overnight with three volumes of ethyl acetate followed by centrifugation at 15,000×g for 30 min to separate the organic and aqueous layers. HPLC analysis using a Rainin HPLC equipped with a C18, 5 μm, 100 Å, 4.6×250 mm MICROSORB-MV reverse phase column. Products are separated in 30 min with a gradient of 5% to 95% solvent B in Solvent A at a flow rate of 1 mL/min, where solvent A is 0.1M triethylammonium acetate, pH 7.0, and solvent B is acetonitrile (see FIG. 1). Products are detected by reading the absorbance at 500 nm. Peaks are identified and, if desired, quantitated by comparing retention times with authentic samples of the glutathione adduct of Compound 45 (Example 45).
as §1
Alternatively, the above samples are analyzed by TLC and by HPLC, as described in Examples 48 and 52. […] Coinjection with authentic Compound 1 confirms the identity of the substrate peak and coinjection with the authentic Compound 1-GSH adduct (Example 45) confirms the identify of the other fluorescent product.

[4] = tested on: Bovine pulmonary aorta endothelial cells (BPAEC); assay: Retention of fluorescence in fixed cells (Example 66); format: cell-based; details: 3.7% formaldehyde 30 minutes, 0.2% Triton X-100 30 minutes
[5] = tested on: Bovine pulmonary aorta endothelial cells (BPAEC); assay: Glutathione adduct formation and fate of substrate in cultured animal cells, HPLC (Example 66); format: cell-based
Description: The solutions are mixed overnight with three volumes of ethyl acetate followed by centrifugation at 15,000×g for 30 min to separate the organic and aqueous layers. HPLC analysis using a Rainin HPLC equipped with a C18, 5 μm, 100 Å, 4.6×250 mm MICROSORB-MV reverse phase column. […] Products are detected by reading the absorbance at 500 nm.
Bovine pulmonary aorta endothelial cells (BPAEC) are removed from flasks by trypsinization and washed into fresh complete growth medium to yield 10^6 cells/mL. […] Other aliquots of the cell suspension are loaded with the same substrates for 1 hour, rinsed into fresh complete medium, then incubated in the absence of substrate for an additional 3 hr at 37° C. to look for retention and efflux of fluorescent products. At the end of each incubation period the cells are removed by centrifugation and the supernate is retained. The cell pellets are resuspended in 1 mL of E-Pure water and subjected to three freeze-thaw cycles (-80° C. to 37° C.).

[6] = 15 min, 5 μM substrate, continuous
[7] = 1 hr, washed, then additional 3 hr at 37° C.
[8] = 4 hrs, 5 μM substrate, continuous

O=[N+]([O-])c1ccc(Cl)c([N+](=O)[O-])c1 [1-Chloro-2,4-dinitrobenzene]
reaction with GSH in the presence of GST enzymes [1]: react specifically with GSH in the presence of GST enzymes

CC(=O)Oc1ccc2c(c1)Oc1cc(OC(C)=O)ccc1C21OC(=O)c2cc(NC(=O)c3c(F)c(F)c(F)c(F)c3F)ccc21 [Compound 4, 5-(pentafluorobenzoylamino)fluorescein diacetate]
fluorescent proteins formed, gel electrophoresis (β-galactosidase; molar ratio of reagent to protein 15): no fluorescent proteins are formed | reaction with β-galactosidase, TLC (β-galactosidase; molar ratio of reagent to protein 15, pH 7.5, 1 hour, with and without 30 mM NEM): no reaction | fluorescent bands on gel (region of the tracking dye) (3T3 or BPAE cells [2]): Two closely spaced green fluorescent bands | protein adduct bands on gel (3T3 or BPAE cells [2]): No other band corresponding to proteins is visible | brightness versus autofluorescent control cells (NIH-3T3 cells; 0.1 mM dye, 37° C., 30 minutes then on ice 30 minutes): at least 20 fold | dye retained by the cells (NIH-3T3 cells; after 75 minutes of incubation at 37° C.): Approximately 45% | products by HPLC (3T3 or BPAE cells [3]; HPLC): two peaks | products by TLC (3T3 or BPAE cells [3]; TLC): formation of a GSH adduct | fluorescence after fixation and permeabilization [4]: appreciably fluorescent | GSH adduct formation in cells ([5]; 5 μM substrate, 37° C., HPLC): hydrolyzed and conjugated to glutathione; also recorded: gives rise to glutathione (GSH) adducts | EXTRACELLULAR Free dye [5, 6]: 3350 relative fluorescence units | EXTRACELLULAR Free dye, fraction of total fluorescence [5, 6]: 89.2% | EXTRACELLULAR GSH adduct [5, 6]: 97 relative fluorescence units | EXTRACELLULAR GSH adduct, fraction of total fluorescence [5, 6]: 2.6% | INTRACELLULAR Free dye [5, 6]: 237 relative fluorescence units | INTRACELLULAR Free dye, fraction of total fluorescence [5, 6]: 6.3% | INTRACELLULAR GSH adduct [5, 6]: 72 relative fluorescence units | INTRACELLULAR GSH adduct, fraction of total fluorescence [5, 6]: 1.9% | EXTRACELLULAR Free dye [5, 7]: 361 relative fluorescence units | EXTRACELLULAR Free dye, fraction of total fluorescence [5, 7]: 85.3% | EXTRACELLULAR GSH adduct [5, 7]: 62 relative fluorescence units | EXTRACELLULAR GSH adduct, fraction of total fluorescence [5, 7]: 14.7% | INTRACELLULAR Free dye [5, 7]: < 1 relative fluorescence units | INTRACELLULAR Free dye, fraction of total fluorescence [5, 7]: < 0.2% | INTRACELLULAR GSH adduct [5, 7]: < 1 relative fluorescence units | INTRACELLULAR GSH adduct, fraction of total fluorescence [5, 7]: < 0.2% | EXTRACELLULAR Free dye [5, 8]: 4498 relative fluorescence units | EXTRACELLULAR Free dye, fraction of total fluorescence [5, 8]: 86.8% | EXTRACELLULAR GSH adduct [5, 8]: 642 relative fluorescence units | EXTRACELLULAR GSH adduct, fraction of total fluorescence [5, 8]: 12.4% | INTRACELLULAR Free dye [5, 8]: 23 relative fluorescence units | INTRACELLULAR Free dye, fraction of total fluorescence [5, 8]: 0.4% | INTRACELLULAR GSH adduct [5, 8]: 21 relative fluorescence units | INTRACELLULAR GSH adduct, fraction of total fluorescence [5, 8]: 0.4%

O=S1(=O)OC(c2cc(Br)c(O)c(Br)c2)(c2cc(Br)c(O)c(Br)c2)c2ccccc21 [tetrabromophenolsulfonephthalein]
reaction with GSH in the presence of GST enzymes [1]: react specifically with GSH in the presence of GST enzymes
